Some test systems named below: A498; CCRF-CEM; DU-145; Hs-578T; K562; KM12; M14; MDA-MB-435; MDA-N; NCI-H460; PC-3; RPMI-8226; RXF 393; SF-268; SK-MEL-2; SK-MEL-5; SK-OV-3; SW-620; TK-10.
Common to all, as to assay: NCI anticancer screen, dose series, 48 h

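Five concentrations, 48 hours, 96-well plates. Here, GI50 denotes the concentration required for 50% inhibition of growth.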 Active and inactive are the calls of the source. No stated cut-off is given here; in the data, active = GI50 up to about 1.1 µM and inactive = higher.

In the case of `CC(=O)CSCc1ccccn1`, the GI50 was 51.1 µM (inactive) in the assay with A498; 39.9 µM (inactive) with CCRF-CEM; 65.2 µM (inactive) in the assay with DU-145; 2.69 µM (inactive) with Hs-578T; 23.6 µM (inactive) in the assay on K562; 36.8 µM (inactive) in the assay with KM12. In addition, the GI50 in the assay on M14 is 60.5 µM (inactive); with MDA-MB-435 it was 33.4 µM (inactive); with MDA-N it was 37.8 µM (inactive); with NCI-H460 it was 30.6 µM (inactive); in the assay on PC-3 it was 33.7 µM (inactive); in the assay on RPMI-8226, 12.7 µM (inactive). Moreover, the GI50 in the assay on RXF 393 is > 100 µM (inactive); in the assay with SF-268, 8.87 µM (inactive); with SK-MEL-2, 25.9 µM (inactive); with SK-MEL-5, 26 µM (inactive); in the assay on SK-OV-3, > 100 µM (inactive); with SW-620, 45.8 µM (inactive). Also, the GI50 with TK-10 is > 100 µM (inactive).

Consider `Cn1c(Sc2ccc(-c3cccnc3)n2C)ccc1-c1cccnc1`, for which the GI50 is 20.9 µM (inactive) with A498; 1.96 µM (inactive) in the assay on CCRF-CEM; 18.1 µM (inactive) with DU-145; 3.7 µM (inactive) in the assay with Hs-578T; 3.12 µM (inactive) with K562; 18 µM (inactive) with KM12. Moreover, the GI50 is 17.1 µM (inactive) in the assay on M14; 13.4 µM (inactive) in the assay on MDA-MB-435; 8.57 µM (inactive) in the assay on MDA-N; 15.2 µM (inactive) with NCI-H460; 15.5 µM (inactive) in the assay with PC-3; 6.65 µM (inactive) with RPMI-8226. Also, the GI50 in the assay with RXF 393 was 18.5 µM (inactive); in the assay on SF-268, 10.7 µM (inactive); in the assay with SK-MEL-2 it was 14.2 µM (inactive); in the assay on SK-MEL-5, 16.4 µM (inactive); in the assay with SK-OV-3, 27.7 µM (inactive); in the assay on SW-620 it was 6.93 µM (inactive). Also, in the assay on TK-10, the GI50 was 17.3 µM (inactive).

For `N=C(N)SCc1ccc(Cl)c2ccccc12.O=[N+]([O-])c1c(O)c(Cl)cc(Cl)c1Cl`, the GI50 is 9.2 µM (inactive) in the assay on A498; 9.59 µM (inactive) in the assay with CCRF-CEM; 14 µM (inactive) in the assay on DU-145; 17.9 µM (inactive) in the assay on Hs-578T; 4.66 µM (inactive) with K562; 13.6 µM (inactive) in the assay on KM12. In addition, the GI50 is 10.3 µM (inactive) in the assay with M14; 8.38 µM (inactive) in the assay with MDA-MB-435; 11.1 µM (inactive) in the assay on MDA-N; 8.32 µM (inactive) with NCI-H460; 11.9 µM (inactive) in the assay on PC-3; 2.64 µM (inactive) in the assay on RPMI-8226. Moreover, the GI50 in the assay with RXF 393 is 7.23 µM (inactive); in the assay with SF-268 it was 15.7 µM (inactive); with SK-MEL-2, 8.95 µM (inactive); with SK-MEL-5, 12.6 µM (inactive); in the assay with SK-OV-3 it was 13.1 µM (inactive); in the assay with SW-620 it was 12.2 µM (inactive). In addition, the GI50 in the assay on TK-10 is 7.67 µM (inactive).

Consider `N#Cc1c(-c2ccccc2)c(C=O)c(=O)n2c1[nH]c1ccccc12`, for which the GI50 in the assay with A498 is 26.1 µM (inactive); in the assay on CCRF-CEM, 17.6 µM (inactive); with DU-145 it was > 100 µM (inactive); in the assay on Hs-578T it was 31.3 µM (inactive); in the assay with K562, 67 µM (inactive); in the assay on KM12, 60.1 µM (inactive). Moreover, the GI50 is 97.5 µM (inactive) with M14; 67.1 µM (inactive) in the assay on MDA-MB-435; 84.3 µM (inactive) with MDA-N; > 100 µM (inactive) in the assay with NCI-H460; > 100 µM (inactive) in the assay with PC-3; 63.2 µM (inactive) in the assay on RPMI-8226. The GI50 is 42.5 µM (inactive) in the assay on RXF 393; 65.9 µM (inactive) with SF-268; 33 µM (inactive) with SK-MEL-2; > 100 µM (inactive) with SK-MEL-5; > 100 µM (inactive) in the assay on SK-OV-3; 42.6 µM (inactive) in the assay with SW-620. Also, the GI50 in the assay on TK-10 was 77.3 µM (inactive).

In the case of `CN(CCNC(=O)c1cn(C)c2c1ccc1cc(Cl)c(Cl)cc12)CCNC(=O)c1cn(C)c2c1ccc1cc(Cl)c(Cl)cc12`, the GI50 in the assay on A498 was 3.82 µM (inactive); in the assay on CCRF-CEM, 1.61 µM (inactive); with DU-145, 1.82 µM (inactive); with Hs-578T, 2.17 µM (inactive); in the assay on K562 it was 0.535 µM (active); in the assay on KM12, 1.75 µM (inactive). Also, the GI50 was 1.75 µM (inactive) in the assay on M14; 1.77 µM (inactive) in the assay on MDA-MB-435; 2.29 µM (inactive) in the assay on MDA-N; 1.9 µM (inactive) with NCI-H460; 1.7 µM (inactive) in the assay on PC-3; 2.65 µM (inactive) in the assay with RPMI-8226. Also, the GI50 is 1.42 µM (inactive) with RXF 393; 2.75 µM (inactive) with SF-268; 1.84 µM (inactive) in the assay on SK-MEL-2; 12.5 µM (inactive) in the assay on SK-MEL-5; 2.03 µM (inactive) in the assay on SK-OV-3; 1.8 µM (inactive) with SW-620. Further, the GI50 in the assay with TK-10 was 3.71 µM (inactive).

As for `CC(=O)Oc1cc2c(c3ncccc13)OC(C)(C)C2`, the GI50 in the assay with A498 is 16.9 µM (inactive); with CCRF-CEM, 10.5 µM (inactive); with DU-145, 15.1 µM (inactive); with Hs-578T, 5.12 µM (inactive); in the assay on K562, 6.19 µM (inactive); in the assay with KM12, 13.4 µM (inactive). Moreover, the GI50 is 12.8 µM (inactive) in the assay on M14; 3.33 µM (inactive) with MDA-MB-435; 2.94 µM (inactive) in the assay with MDA-N; 8.71 µM (inactive) in the assay with NCI-H460; 20.7 µM (inactive) with PC-3; 20.3 µM (inactive) in the assay with RPMI-8226. For the same compound, the GI50 in the assay on RXF 393 was 12.4 µM (inactive); with SF-268, 10.8 µM (inactive); in the assay on SK-MEL-2 it was 17.6 µM (inactive); in the assay on SK-MEL-5 it was 12.5 µM (inactive); with SK-OV-3, 27.2 µM (inactive); in the assay on SW-620 it was 13.3 µM (inactive). For the same compound, the GI50 with TK-10 was 12.8 µM (inactive).

Consider `O=c1c2cccnc2cc(-c2ccccc2)n1CCO`, for which the GI50 with A498, with CCRF-CEM, in the assay on DU-145, in the assay on Hs-578T, with K562 and in the assay with KM12 was > 100 µM (inactive) throughout. Further, the GI50 in the assay on M14, in the assay on MDA-MB-435, in the assay with MDA-N, in the assay with NCI-H460, in the assay with PC-3 and in the assay on RPMI-8226 was > 100 µM (inactive) in each case. For the same compound, the GI50 in the assay on RXF 393 is > 100 µM (inactive); in the assay with SF-268, 59.2 µM (inactive); in the assay with SK-MEL-2, > 100 µM (inactive); in the assay on SK-MEL-5 it was > 100 µM (inactive); with SK-OV-3, > 100 µM (inactive); in the assay with SW-620 it was > 100 µM (inactive). Besides, the GI50 in the assay with TK-10 is > 100 µM (inactive).

`C=CC1(C)CCC2C(=CCC3C(C)(COC4OC(C(=O)O)C(O)C(O)C4O)C(O)CCC23C)C1.C=CC1(C)CCC2C(=CCC3C2(C)CC(O)C(O)C3(C)COC2OC(C(=O)O)C(O)C(O)C2O)C1` (stereo not given): the GI50 was > 100 µM (inactive) with A498; 19.4 µM (inactive) in the assay with CCRF-CEM; > 100 µM (inactive) with DU-145; > 100 µM (inactive) in the assay with Hs-578T; 54.5 µM (inactive) in the assay on K562; > 100 µM (inactive) with KM12. Further, the GI50 was > 100 µM (inactive) in the assay with M14; > 100 µM (inactive) in the assay with MDA-MB-435; > 100 µM (inactive) in the assay with MDA-N; > 100 µM (inactive) in the assay on NCI-H460; 80.4 µM (inactive) in the assay with PC-3; > 100 µM (inactive) in the assay on RPMI-8226. In addition, the GI50 in the assay on RXF 393, with SF-268, in the assay on SK-MEL-2, in the assay with SK-MEL-5, with SK-OV-3 and with SW-620 was > 100 µM (inactive) in each case. The GI50 in the assay on TK-10 was 46.1 µM (inactive).

For the compound `CNC(=O)Nc1nc2cc([N+](=O)[O-])ccc2[nH]1`, the GI50 with A498 is > 100 µM (inactive); with CCRF-CEM, 67.8 µM (inactive); in the assay on DU-145 it was > 100 µM (inactive); with Hs-578T it was > 100 µM (inactive); in the assay on K562 it was > 100 µM (inactive); with KM12, > 100 µM (inactive). The GI50 in the assay with M14 was > 100 µM (inactive); in the assay on MDA-MB-435, > 100 µM (inactive); with MDA-N, > 100 µM (inactive); in the assay with NCI-H460, 7.55 µM (inactive); in the assay with PC-3 it was > 100 µM (inactive); in the assay on RPMI-8226, > 100 µM (inactive). Moreover, the GI50 in the assay on RXF 393 is > 100 µM (inactive); with SF-268, > 100 µM (inactive); in the assay with SK-MEL-2, 21.5 µM (inactive); in the assay on SK-MEL-5, > 100 µM (inactive); in the assay with SK-OV-3 it was > 100 µM (inactive); in the assay with SW-620 it was > 100 µM (inactive). Besides, in the assay on TK-10, the GI50 is > 100 µM (inactive).

As to `O=C1/C(=C/c2ccc(Cl)cc2)CCC1CN1CCOCC1` (stereo not given), the GI50 in the assay with A498 is 19.6 µM (inactive); with CCRF-CEM, 1.13 µM (inactive); in the assay on DU-145 it was 11.5 µM (inactive); in the assay on Hs-578T, 4.31 µM (inactive); in the assay with K562, 1.86 µM (inactive); in the assay on KM12, 3.33 µM (inactive). Further, the GI50 in the assay with M14 is 5.48 µM (inactive); with MDA-MB-435 it was 4.6 µM (inactive); in the assay with MDA-N it was 6.46 µM (inactive); in the assay on NCI-H460 it was 14.9 µM (inactive); in the assay with PC-3, 6.19 µM (inactive); with RPMI-8226, 0.818 µM (active). Moreover, the GI50 with RXF 393 is 3.76 µM (inactive); in the assay on SF-268, 14.3 µM (inactive); in the assay on SK-MEL-2, 16.5 µM (inactive); with SK-MEL-5, 12.5 µM (inactive); with SK-OV-3, 18 µM (inactive); in the assay on SW-620, 2.47 µM (inactive). In the assay with TK-10, the GI50 is 7.36 µM (inactive).

Source of the values: ChEMBL document CHEMBL1201862, “PubChem BioAssay data set” (2004).
